The assay relates to ethanol-induced ulcers. Put plainly: Necrotising agent model: ethanol-induced ulcers. It is filed as in vivo, rat. As to the method:
(B) Necrotising agent model:
Using the necrotising agent model, ethanol in this case, described by Robert el al. (Gastroenterology, 77: 433, 1979), the activity of LV-200 was compared with that of Nt at equimolar dose levels and a control group which was administered vehicle.
The table below gives the lesion indices (in ulcerated area in mm) of the three groups studied, as well as the percentage inhibition of the ulcers of the treated groups over the control group (mean values±standard error of the mean).

With `CNC(=C[N+](=O)[O-])NCCSCc1csc(CN(C)C)n1` [Nt, N-methyl-N'-2-((2(dimethylaminomethyl)-4-thiazolyl)methylthio)ethyl-2-nitro-1,1-ethylenediamine], the “inhibition of ulcers induced by absolute ethanol (in words)” value (absolute ethanol) was “does not inhibit ulcers”. The “% inhibition of the ulcers over the control group” value (ethanol, equimolar doses of LV-200 (230 mg/kg) and Nt) was 0%. Also, the “lesion index (ulcerated area), mm lesions” value (ethanol, equimolar doses of LV-200 (230 mg/kg) and Nt, mean ± standard error of the mean, control 91.2 ± 17.7, LV-200 p < 0.01 vs control, p < 0.001 versus Nt (t test)) worked out at 97.7 ± 11.8 mm.

(Values after patent publication US4956466A, “Thiazole derivatives and process for the preparation thereof” (Laboratorios Vinas, S. A., priority 1988, dated 1990).)
